# Results published in PubChem BioAssay (NCI).
#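 The concentration for 50% growth inhibition is given as GI50. TGI: concentration producing complete growth inhibition.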
# Key:
# Test in all cases: NCI tumour cell line growth inhibition, 384-well format
# TK-10 renal = system: TK-10 renal
# SK-MEL-5 melanoma = system: SK-MEL-5 melanoma
# CAKI-1 renal = system: CAKI-1 renal
# HS 578T breast = system: HS 578T breast
# NCI-H226 lung = system: NCI-H226 lung
# HOP-62 NSCLC = system: HOP-62 NSCLC
# KM12 colon = system: KM12 colon
# SNB-19 CNS = system: SNB-19 CNS
# HCT-116 colon = system: HCT-116 colon
# HCT-15 colon = system: HCT-15 colon
# LOX IMVI melanoma = system: LOX IMVI melanoma
# SR leukemia = system: SR leukemia
# A498 renal = system: A498 renal
# SF-539 CNS = system: SF-539 CNS
# OVCAR-5 ovarian = system: OVCAR-5 ovarian
# HCC-2998 colon = system: HCC-2998 colon
# MDA-MB-435 melanoma = system: MDA-MB-435 melanoma
# MALME-3M melanoma = system: MALME-3M melanoma
# HT29 colon = system: HT29 colon
# MOLT-4 leukemia = system: MOLT-4 leukemia
# U251 glioblastoma = system: U251 glioblastoma
# SK-OV-3 ovarian = system: SK-OV-3 ovarian
# OVCAR-4 ovarian = system: OVCAR-4 ovarian
# MDA-MB-468 breast = system: MDA-MB-468 breast
# OVCAR-8 ovarian = system: OVCAR-8 ovarian
# UACC-257 melanoma = system: UACC-257 melanoma
# SF-268 CNS = system: SF-268 CNS
# SK-MEL-28 melanoma = system: SK-MEL-28 melanoma
# T-47D breast = system: T-47D breast
# RPMI-8226 leukemia = system: RPMI-8226 leukemia
# COLO 205 colon = system: COLO 205 colon
# DU-145 prostate = system: DU-145 prostate
# NCI-H322M lung = system: NCI-H322M lung
# HOP-92 NSCLC = system: HOP-92 NSCLC
# IGROV1 ovarian = system: IGROV1 ovarian
# SW-620 colon = system: SW-620 colon
# HL-60(TB) leukemia = system: HL-60(TB) leukemia
# NCI-H460 NSCLC = system: NCI-H460 NSCLC
# ACHN renal = system: ACHN renal
# M14 melanoma = system: M14 melanoma
# OVCAR-3 ovarian = system: OVCAR-3 ovarian
# NCI-H23 lung = system: NCI-H23 lung
# MDA-MB-231 breast = system: MDA-MB-231 breast
# SN12C renal = system: SN12C renal
# SF-295 CNS = system: SF-295 CNS
# UACC-62 melanoma = system: UACC-62 melanoma
# A549 NSCLC = system: A549 NSCLC
# 786-0 renal = system: 786-0 renal
# NCI-H522 lung = system: NCI-H522 lung
# MCF7 breast = system: MCF7 breast
# NCI/ADR-RES ovarian = system: NCI/ADR-RES ovarian
# BT-549 breast = system: BT-549 breast
# PC-3 prostate = system: PC-3 prostate
compound,measurement,setting,value
CO[C@H]1C[C@@H]2CC[C@@H](C)[C@@](O)(O2)C(=O)C(=O)N2CCCC[C@H]2C(=O)O[C@H]([C@H](C)C[C@@H]2CC[C@@H](OC(=O)C(C)(CO)CO)[C@H](OC)C2)CC(=O)[C@H](C)/C=C(\C)[C@@H](O)[C@@H](OC)C(=O)[C@H](C)C[C@H](C)/C=C/C=C/C=C/1C,GI50,TK-10 renal,12 µM
same,TGI,TK-10 renal,26.3 µM
same,GI50,SK-MEL-5 melanoma,1.63 µM
same,TGI,SK-MEL-5 melanoma,11.4 µM
same,GI50,CAKI-1 renal,1.26 µM
same,TGI,CAKI-1 renal,15.1 µM
same,TGI,HS 578T breast,1.74 µM
same,GI50,NCI-H226 lung,1.11 µM
same,TGI,NCI-H226 lung,4.08 µM
same,GI50,HOP-62 NSCLC,0.233 µM
same,TGI,HOP-62 NSCLC,13.3 µM
same,GI50,KM12 colon,2.22 µM
same,TGI,KM12 colon,17.4 µM
same,GI50,SNB-19 CNS,5.96 µM
same,TGI,SNB-19 CNS,20.2 µM
same,GI50,HCT-116 colon,3.23 µM
same,TGI,HCT-116 colon,15.5 µM
same,GI50,HCT-15 colon,0.473 µM
same,TGI,HCT-15 colon,15 µM
same,GI50,LOX IMVI melanoma,1.19 µM
same,TGI,LOX IMVI melanoma,11.3 µM
same,TGI,SR leukemia,0.441 µM
same,TGI,A498 renal,14.5 µM
same,GI50,SF-539 CNS,1.12 µM
same,TGI,SF-539 CNS,15.1 µM
same,GI50,OVCAR-5 ovarian,12.5 µM
same,TGI,OVCAR-5 ovarian,25.4 µM
same,GI50,HCC-2998 colon,1.2 µM
same,TGI,HCC-2998 colon,11.6 µM
same,GI50,MDA-MB-435 melanoma,11.4 µM
same,TGI,MDA-MB-435 melanoma,23.6 µM
same,TGI,MALME-3M melanoma,3.29 µM
same,GI50,HT29 colon,2.33 µM
same,TGI,HT29 colon,12.8 µM
same,TGI,MOLT-4 leukemia,1.54 µM
same,GI50,U251 glioblastoma,2.22 µM
same,TGI,U251 glioblastoma,14 µM
same,GI50,SK-OV-3 ovarian,11.6 µM
same,TGI,SK-OV-3 ovarian,27.5 µM
same,GI50,OVCAR-4 ovarian,1.53 µM
same,TGI,OVCAR-4 ovarian,12.6 µM
same,TGI,MDA-MB-468 breast,2.53 µM
same,GI50,OVCAR-8 ovarian,0.791 µM
same,TGI,OVCAR-8 ovarian,15.9 µM
same,GI50,UACC-257 melanoma,8.32 µM
same,TGI,UACC-257 melanoma,20.3 µM
same,GI50,SF-268 CNS,2.81 µM
same,TGI,SF-268 CNS,14.1 µM
same,GI50,SK-MEL-28 melanoma,3.04 µM
same,TGI,SK-MEL-28 melanoma,14.7 µM
same,TGI,T-47D breast,5.11 µM
same,TGI,RPMI-8226 leukemia,1.06 µM
same,GI50,COLO 205 colon,11.2 µM
same,TGI,COLO 205 colon,23.3 µM
same,GI50,DU-145 prostate,1.05 µM
same,TGI,DU-145 prostate,15.7 µM
same,GI50,NCI-H322M lung,1.32 µM
same,TGI,NCI-H322M lung,12.7 µM
same,GI50,HOP-92 NSCLC,2.75 µM
same,TGI,HOP-92 NSCLC,8.39 µM
same,TGI,IGROV1 ovarian,5.04 µM
same,GI50,SW-620 colon,11.2 µM
same,TGI,SW-620 colon,23.9 µM
same,GI50,HL-60(TB) leukemia,1.63 µM
same,TGI,HL-60(TB) leukemia,3 µM
same,GI50,NCI-H460 NSCLC,0.404 µM
same,TGI,NCI-H460 NSCLC,15.5 µM
same,GI50,ACHN renal,2.31 µM
same,TGI,ACHN renal,15.1 µM
same,GI50,M14 melanoma,5.55 µM
same,TGI,M14 melanoma,19.8 µM
same,GI50,OVCAR-3 ovarian,0.867 µM
same,TGI,OVCAR-3 ovarian,13.9 µM
same,GI50,NCI-H23 lung,1.93 µM
same,TGI,NCI-H23 lung,15.7 µM
same,GI50,MDA-MB-231 breast,1.82 µM
same,TGI,MDA-MB-231 breast,7.89 µM
same,GI50,SN12C renal,4.56 µM
same,TGI,SN12C renal,19.2 µM
same,TGI,SF-295 CNS,3.62 µM
same,GI50,UACC-62 melanoma,1.79 µM
same,TGI,UACC-62 melanoma,15 µM
same,TGI,A549 NSCLC,15.4 µM
same,GI50,786-0 renal,0.148 µM
same,TGI,786-0 renal,14.2 µM
same,GI50,NCI-H522 lung,2.23 µM
same,TGI,NCI-H522 lung,11.5 µM
same,TGI,MCF7 breast,10.1 µM
same,GI50,NCI/ADR-RES ovarian,4.89 µM
same,TGI,NCI/ADR-RES ovarian,22.5 µM
same,TGI,BT-549 breast,1.7 µM
same,GI50,PC-3 prostate,1.16 µM
same,TGI,PC-3 prostate,11.8 µM
